Source: patent US10005767B2, “Compositions and methods for inhibition of the JAK pathway” (Rigel Pharmaceuticals, Inc., priority 2009, dated 2018)
Counter-ions that a name gives are not always drawn.

The compounds below were run on human primary T-cells, IL-2 stimulated proliferation (JAK-1 and JAK-3 dependent; reported as JAK3 activity) (assay: Human primary T-cell proliferation stimulated by IL-2 (Example 3)). Conditions: Homo sapiens, T-cell, tested under conditions described in Example 3 (IL-2 stimulated human primary T-cell proliferation); read-out: ability to inhibit JAK3 activity, IC50 range (Table V).
Format: cell-based
How it was run: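 Peripheral-blood human T-cells pre-activated via TCR/CD28, IL-2-starved overnight, then cultured 72 h at 37 °C with compound in Yssel's medium containing IL-2 (80 U/mL in cell suspension). Proliferation read as viable-cell ATP by CellTiter-Glo luminescence; reduction versus control taken as JAK pathway inhibition.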
In the case of `Cc1cnc(Nc2ccc(OC(F)(F)F)c(N3CCOCC3)c2)nc1Nc1ccc2oc(=O)[nH]c2c1` [Compound I-124, N4-(benzo[d]oxazolin-2(3H)-one-5-yl)-5-methyl-N2-[3-(morpholin-4-yl)-4-trifluoromethoxyphenyl]-2,4-pyrimidinediamine], the IC50 is reported as less than 500 nM. For `COC(=O)c1ccc(Nc2ncc(C)c(Nc3ccc4oc(=O)[nH]c4c3)n2)cc1` [Compound I-125, 4-[5-Methyl-4-(2-oxo-2,3-dihydro-benzooxazol-5-ylamino)-pyrimidin-2-ylamino]-benzoic acid methyl ester], the IC50 was less than 500 nM. Work on `Cc1cnc(Nc2ccc(C(=O)O)cc2)nc1Nc1ccc2oc(=O)[nH]c2c1` [Compound I-126, 4-[5-Methyl-4-(2-oxo-2,3-dihydro-benzooxazol-5-ylamino)-pyrimidin-2-ylamino]-benzoic acid] yielded an IC50 of less than 500 nM. `CCN(CC)CCNC(=O)c1ccc(Nc2ncc(C)c(Nc3ccc4oc(=O)[nH]c4c3)n2)cc1` [Compound I-127, N-(2-Diethylamino-ethyl)-4-[5-methyl-4-(2-oxo-2,3-dihydro-benzooxazol-5-ylamino)-pyrimidin-2-ylamino]-benzamide] was tested, and the IC50 was less than 500 nM. `CCN(CC)C1CCN(C(=O)c2ccc(Nc3ncc(C)c(Nc4ccc5oc(=O)[nH]c5c4)n3)cc2)C1` (stereo not drawn) [Compound I-128, 5-{2-[4-(3-Diethylamino-pyrrolidine-1-carbonyl)-phenylamino]-5-methyl-pyrimidin-4-ylamino}-3H-benzooxazol-2-one] was tested, and the IC50 was less than 500 nM. Compound `CC(=O)c1ccc(Nc2ncc(C)c(Nc3ccc4oc(=O)[nH]c4c3)n2)cc1` [Compound I-129, 5-[2-(4-Acetyl-phenylamino)-5-methyl-pyrimidin-4-ylamino]-3H-benzooxazol-2-one] has an IC50 of less than 500 nM. `CC(=O)c1cccc(Nc2ncc(C)c(Nc3ccc4oc(=O)[nH]c4c3)n2)c1` [Compound I-130, 5-[2-(3-Acetyl-phenylamino)-5-methyl-pyrimidin-4-ylamino]-3H-benzooxazol-2-one] gave an IC50 of less than 500 nM. With `Cc1ccc(Nc2ncc(C)c(Nc3ccc4oc(=O)[nH]c4c3)n2)cc1C#N` [Compound I-131, 2-Methyl-5-[5-methyl-4-(2-oxo-2,3-dihydro-benzooxazol-5-ylamino)-pyrimidin-2-ylamino]-benzonitrile] the IC50 was less than 500 nM. With `Cc1cnc(Nc2ccc(C(=O)N(C)C)cc2)nc1Nc1ccc2oc(=O)[nH]c2c1` [Compound I-132, N,N-Dimethyl-4-[5-methyl-4-(2-oxo-2,3-dihydro-benzooxazol-5-ylamino)-pyrimidin-2-ylamino]-benzamide] the IC50 was less than 500 nM. For `CNC(=O)c1ccc(Nc2ncc(C)c(Nc3ccc4oc(=O)[nH]c4c3)n2)cc1` [Compound I-133, N-Methyl-4-[5-methyl-4-(2-oxo-2,3-dihydro-benzooxazol-5-ylamino)-pyrimidin-2-ylamino]-benzamide], the IC50 was less than 500 nM. `Cc1cnc(Nc2ccc(C(=O)NC3CC3)cc2)nc1Nc1ccc2oc(=O)[nH]c2c1` [Compound I-134, N-Cyclopropyl-4-[5-methyl-4-(2-oxo-2,3-dihydro-benzooxazol-5-ylamino)-pyrimidin-2-ylamino]-benzamide formate salt] gave an IC50 of less than 500 nM. In the case of `Cc1cnc(Nc2ccc(C(=O)Nc3ccccc3)cc2)nc1Nc1ccc2oc(=O)[nH]c2c1` [Compound I-135, 4-[5-Methyl-4-(2-oxo-2,3-dihydro-benzooxazol-5-ylamino)-pyrimidin-2-ylamino]-N-phenyl-benzamide], the IC50 is reported as less than 500 nM. With `Cc1cnc(Nc2ccc(C(N)=O)c(N3CCCC3)c2)nc1Nc1ccc2oc(=O)[nH]c2c1` [Compound I-136, 4-[5-Methyl-4-(2-oxo-2,3-dihydro-benzooxazol-5-ylamino)-pyrimidin-2-ylamino]-2-pyrrolidin-1-yl-benzamide] the IC50 was less than 500 nM. In the case of `CCNC(=O)c1ccc(Nc2ncc(C)c(Nc3ccc4oc(=O)[nH]c4c3)n2)cc1` [Compound I-137, N-Ethyl-4-[5-methyl-4-(2-oxo-2,3-dihydro-benzooxazol-5-ylamino)-pyrimidin-2-ylamino]-benzamide], the IC50 is reported as less than 500 nM. `Cc1cnc(Nc2ccc(C(=O)NC3CCC3)cc2)nc1Nc1ccc2oc(=O)[nH]c2c1` [Compound I-138, N-Cyclobutyl-4-[5-methyl-4-(2-oxo-2,3-dihydro-benzooxazol-5-ylamino)-pyrimidin-2-ylamino]-benzamide formic acid salt] showed an IC50 of less than 500 nM. For `Cc1cnc(Nc2ccc(C(=O)NC(C)C)cc2)nc1Nc1ccc2oc(=O)[nH]c2c1` [Compound I-139, N-Isopropyl-4-[5-methyl-4-(2-oxo-2,3-dihydro-benzooxazol-5-ylamino)-pyrimidin-2-ylamino]-benzamide], the IC50 was less than 500 nM. `Cc1cnc(Nc2ccc(C(N)=O)c(Cl)c2)nc1Nc1ccc2oc(=O)[nH]c2c1` [Compound I-141, 2-Chloro-4-[5-methyl-4-(2-oxo-2,3-dihydro-benzooxazol-5-ylamino)-pyrimidin-2-ylamino]-benzamide trifluoroacetic acid salt] showed an IC50 of less than 500 nM. Work on `CCC(=O)n1c(=O)oc2ccc(Nc3nc(Nc4ccc(C(N)=O)cc4)ncc3C)cc21` [Compound I-145, 4-[5-Methyl-4-(2-oxo-3-propionyl-2,3-dihydro-benzooxazol-5-ylamino)-pyrimidin-2-ylamino]-benzamide] yielded an IC50 of less than 500 nM. Work on `Cc1cnc(Nc2ccc(C(N)=O)cc2)nc1Nc1ccc2oc(=O)n(COP(=O)(OC(C)(C)C)OC(C)(C)C)c2c1` [Compound I-146, di-tert-butyl (5-(2-(4-carbamoylphenylamino)-5-methylpyrimidin-4-ylamino)-2-oxobenzo[d]oxazol-3(2H)-yl)methyl phosphate] yielded an IC50 of 500 to 5000 nM. `Cc1cnc(Nc2ccc(C(N)=O)cc2)nc1Nc1ccc2oc(=O)n(COP(=O)(O)O)c2c1` [Compound I-147, (5-(2-(4-carbamoylphenylamino)-5-methylpyrimidin-4-ylamino)-2-oxobenzo[d]oxazol-3(2H)-yl)methyl dihydrogen phosphate] was tested, and the IC50 was less than 500 nM. For `Cc1cnc(Nc2ccc(C(=O)NC3CCC3)cc2)nc1Nc1ccc2oc(=O)n(COP(=O)(O)O)c2c1` [Compound I-150, (5-(2-(4-(cyclobutylcarbamoyl)phenylamino)-5-methylpyrimidin-4-ylamino)-2-oxobenzo[d]oxazol-3(2H)-yl)methyl dihydrogen phosphate], the IC50 was less than 500 nM. `Cc1cnc(Nc2ccc(Cl)c(C(F)(F)F)c2)nc1Nc1ccc2oc(=O)[nH]c2c1` [Compound I-153, 5-[2-(4-Chloro-3-trifluoromethyl-phenylamino)-5-methyl-pyrimidin-4-ylamino]-3H-benzooxazol-2-one] was tested, and the IC50 was less than 500 nM. Work on `Cc1ccc(Nc2ncc(C)c(Nc3ccc4oc(=O)[nH]c4c3)n2)cc1C(F)(F)F` [Compound I-154, 5-[5-Methyl-2-(4-methyl-3-trifluoromethyl-phenylamino)-pyrimidin-4-ylamino]-3H-benzooxazol-2-one] yielded an IC50 of less than 500 nM. Work on `CSc1ccc(Nc2ncc(C)c(Nc3ccc4oc(=O)[nH]c4c3)n2)cc1C(F)(F)F` [Compound I-155, 5-[5-Methyl-2-(4-methylsulfanyl-3-trifluoromethyl-phenylamino)-pyrimidin-4-ylamino]-3H-benzooxazol-2-one] yielded an IC50 of less than 500 nM. With `Cc1cnc(Nc2ccc(C(N)=O)c(N3CCC(C)CC3)c2)nc1Nc1ccc2oc(=O)[nH]c2c1` [Compound I-156, 4-[5-Methyl-4-(2-oxo-2,3-dihydro-benzooxazol-5-ylamino)-pyrimidin-2-ylamino]-2-(4-methyl-piperidin-1-yl)-benzamide] the IC50 was less than 500 nM. In the case of `Cc1cnc(Nc2cccc(S(=O)(=O)C3CCCC3)c2)nc1Nc1ccc2oc(=O)[nH]c2c1` [Compound I-157, 5-[2-(3-Cyclopentanesulfonyl-phenylamino)-5-methyl-pyrimidin-4-ylamino]-3H-benzooxazol-2-one], the IC50 is reported as less than 500 nM. With `Cc1cnc(Nc2cccc(C(F)(F)F)c2)nc1Nc1ccc2oc(=O)[nH]c2c1` [Compound I-158, 5-[5-Methyl-2-(3-trifluoromethyl-phenylamino)-pyrimidin-4-ylamino]-3H-benzooxazol-2-one] the IC50 was less than 500 nM. `COC(=O)c1ccc(Nc2ncc(C)c(Nc3ccc4oc(=O)[nH]c4c3)n2)cc1C` [Compound I-159, 2-Methyl-4-[5-methyl-4-(2-oxo-2,3-dihydro-benzooxazol-5-ylamino)-pyrimidin-2-ylamino]-benzoic acid methyl ester] showed an IC50 of less than 500 nM. With `Cc1cnc(Nc2ccc(C(F)(F)F)cc2)nc1Nc1ccc2oc(=O)[nH]c2c1` [Compound I-160, 5-[5-Methyl-2-(4-trifluoromethyl-phenylamino)-pyrimidin-4-ylamino]-3H-benzooxazol-2-one] the IC50 was less than 500 nM. `Cc1cnc(Nc2ccc(OC(F)(F)F)c(C(F)(F)F)c2)nc1Nc1ccc2oc(=O)[nH]c2c1` [Compound I-161, 5-[5-Methyl-2-(4-trifluoromethoxy-3-trifluoromethyl-phenylamino)-pyrimidin-4-ylamino]-3H-benzooxazol-2-one] showed an IC50 of less than 500 nM. For `Cc1cnc(Nc2ccc(F)c(OC(F)(F)F)c2)nc1Nc1ccc2oc(=O)[nH]c2c1` [Compound I-163, 5-[2-(4-Fluoro-3-trifluoromethoxy-phenylamino)-5-methyl-pyrimidin-4-ylamino]-3H-benzooxazol-2-one], the IC50 was less than 500 nM.

Same assay, conditions: tested under conditions described in Example 3 (IL-2 stimulated human primary T-cell proliferation); read-out: ability to inhibit JAK3 activity, IC50 range (Table V)
Compound `Cc1cnc(Nc2ccc(C(=O)NC3CCC3)cc2)nc1Nc1ccc2oc(=O)n(COP(=O)(OC(C)(C)C)OC(C)(C)C)c2c1` [Compound I-152, di-tert-butyl(5-(2-(4-(cyclobutylcarbamoyl)phenylamino)-5-methylpyrimidin-4-ylamino)-2-oxobenzo[d]oxazol-3(2H)-yl)methyl phosphate] has an IC50 of 500 to 5000 nM. With `Cc1cnc(Nc2cc(F)cc(C(F)(F)F)c2)nc1Nc1ccc2oc(=O)[nH]c2c1` [Compound I-162, 5-[2-(3-Fluoro-5-trifluoromethyl-phenylamino)-5-methyl-pyrimidin-4-ylamino]-3H-benzooxazol-2-one triflouroacetate salt] the IC50 was greater than 10000 nM.
